# Settings: buffer; pH 7.4; 200.0 µM
row,Structure (SMILES),solubility kinetic [µg/mL]
1,CN(C)[C@@H]1C(=O)C(C(N)=O)=C(O)[C@@]2(O)C(=O)C3=C(O)c4c(O)cccc4[C@@](C)(O)C3[C@H](O)C12.Cl (some centres undefined),70.2
2,NC(=O)COC(=O)c1cc([N+](=O)[O-])ccc1NCCO,> 42.5
3,Cc1c2c(n3c(nc4ccccc43)c1C#N)N(CCN(C)C)CC2,> 47.9
4,O=C(NC1(C(F)(F)F)NC(=O)N(C2CCCCC2)C1=O)c1ccco1 (centres undefined),50.2
5,O=C(Nc1ccc2[nH]ccc2c1)c1ccccc1,31.9
6,COc1ccc(NC(C)=O)cc1NC(=O)c1ccc(Cl)cc1,17.2
7,CCC1CCCCN1C(=O)CCCc1ccccc1 (centres undefined),33.2
8,O=C(NCc1cccnc1)c1ccc(Br)s1,> 44.6
9,CC(C)(C)c1ccc(Oc2ccc(NC(=O)c3ccco3)cn2)cc1,< 0.4
10,N#C/C(=C\c1ccc(F)c(Br)c1)C(=O)NC1CC1,6.1
11,CCOC(=O)Cc1csc(NC(=O)CN2CCN(CC)CC2)n1,3.8
12,O=C(Nc1ccc(Cl)cn1)C1CC1,> 29.5
13,COc1cc(N2C(=O)CC(=O)NC2=O)cc(OC)c1OC,40.7
14,Cc1cc(=O)[nH]c2ccc(S(=O)(=O)N3CCOCC3)cc12,16
15,CSc1ccccc1C(=O)Nc1cccc([N+](=O)[O-])c1C,7.5
16,O=C(NCC(O)c1ccccc1)c1ccccc1 (centres undefined),> 36.2
17,CCCC1=C(C(=O)OCC)C(c2ccco2)C(C#N)=C(N)O1 (centres undefined),30.3
18,CC(C)n1c(CN(C)c2ccccc2)nc2ccccc21.Cl,42.4
19,COc1ccc(/C=C(\C#N)C(=O)Nc2ccccn2)cc1,3.5
20,O=C(NC1CCN(c2ncccn2)CC1)c1ccccc1Cl,> 47.5
21,Cc1cccc(C)c1NC(=O)CNC(=O)CNC(=O)c1ccc2c(c1)OCO2,> 57.5
22,O=C(CN1C(=O)COc2ccc(Cl)cc21)NC1CC1,> 42.1
23,O=C(CNc1cc(S(=O)(=O)N2CCOCC2)ccc1N1CCOCC1)Nc1cccc(C(F)(F)F)c1,2.5
24,COc1ccccc1NC(=O)c1c[nH]c2ccccc12,> 39.9

row,Structure (SMILES),solubility kinetic [µg/mL]
1,CCOc1ccc(CN(C)CC(=O)Nc2cccc(C)c2)cc1OC,> 51.4
2,O=c1ccc2cc(S(=O)(=O)Nc3ccccc3F)ccc2o1,> 47.9
3,Cn1c(NC(=O)c2ccccc2)nc2ccccc21,13
4,Nc1nc(Nc2ccccc2F)nc(NC2CCCCC2)c1[N+](=O)[O-],< 0.1
5,Cc1ccc(C(C)C)c(OC/C(O)=C(\C#N)c2nc3ccccc3[nH]2)c1,< 0.2
6,CN(C(=O)CSC(=O)c1ccccc1)c1ccccc1,40.6
7,Cc1cc(C)n(CC(=O)NC2CCCCC2C)c(=O)c1C#N (centres undefined),16.7
8,Cc1sc(NC(=O)CN2CCOCC2)c(C#N)c1C,> 41.9
9,O=[N+]([O-])c1cc(O)c(O)c([N+](=O)[O-])c1,> 30
10,CCCn1c(N)c(N2CCCCC2)c(=O)n(CC(=O)Nc2ccccc2C(F)(F)F)c1=O,7.7
11,Cc1ccc(C(=O)NC(C)c2ccc3c(c2)OCO3)s1 (centres undefined),> 43.4
12,Cc1ccsc1/C=C1/SC(=O)N(CC(=O)N2CCCC2)C1=O,5.9
13,CNC(=O)/C(=C\c1ccco1)NC(=O)c1ccco1,> 39
14,O=C1CC(c2ccccc2)Cc2nc(NC3CC3)ncc21 (centres undefined),2.7
15,Cc1sc2ncnc(N3CCN(S(=O)(=O)c4ccc(C(C)(C)C)cc4)CC3)c2c1C,2.8
16,NS(=O)(=O)c1ccc(-n2cccc2C=O)cc1,36.1
17,O=C(/C=C/c1cccnc1)c1ccc([N+](=O)[O-])cc1,9.8
18,CC(=O)N1CCN(c2ccccc2NC(=O)c2ccco2)CC1,> 47
19,O=c1c2cc(F)ccc2[nH]c(=S)n1Cc1ccc(F)cc1,0.9
20,COc1ccc(OCC(O)CNS(=O)(=O)c2cccs2)cc1 (centres undefined),> 51.5
21,Cc1[nH]c(SCC(=O)c2c(N)n(C)c(=O)n(C)c2=O)nc1Cc1ccccc1,> 59.9
22,COc1ccc(C(=O)NC(=S)N2CCN(c3ccccc3O)CC2)cc1,6.1
23,CCOC(=O)c1ccc(NC(=S)NCc2ccco2)cc1,> 45.7
24,O=C(NCCCN1CCCC1)Nc1ccc(F)cc1,35.2

row,Structure (SMILES),solubility kinetic [µg/mL]
1,Cl.OCCCNCc1ccc(-c2ccccc2)cc1,> 41.7
2,O=C(COC(=O)c1cc(Br)ccc1Cl)NC1CCCC1,5.6
3,CC1CCCC(C)N1C(=O)COC(=O)COc1ccc(C#N)cc1 (centres undefined),> 49.6
4,Cc1ccc(CSCc2ccc(C(=O)NCCC(C)C)o2)cc1,2.2
5,CC(=O)c1c(C)[nH]c(C(=O)Nc2ccc(F)cc2F)c1C,20.6
6,Cc1ccc(O)c(-c2cc(-c3ccc(F)cc3)no2)c1,< 0.6
7,O=C(/C=C/c1ccco1)NCC1COc2ccccc2O1 (centres undefined),> 42.8
8,Fc1ccccc1C1CCN(Cc2nc(COc3ccccc3)no2)C1 (centres undefined),12.7
9,CCNS(=O)(=O)c1ccc(CCC(=O)NCc2ccncc2)cc1,> 52.1
10,CC(C)Oc1cccc(NC(=O)c2cnccc2C(F)(F)F)c1,43.9
11,CN(C)C(=O)CS(=O)(=O)c1ccc(Cl)cc1,32.7
12,O=C(CSc1nnc2ccccn12)NCCc1ccc(F)cc1,> 49.6
13,O=C(/C=C/c1ccc([N+](=O)[O-])cc1)NCc1ccc2c(c1)OCO2,0.9
14,O=C(O)c1cc(Cl)c(Cl)cc1C(=O)NCc1ccco1,> 47.1
15,CC(C)(C)NC(=S)N1CCn2cccc2C1c1cccnc1 (centres undefined),33.5
16,Cc1ccccc1CSc1nc2ccccc2c(=O)n1C,1.5
17,O=c1c2sccc2[nH]c(=S)n1-c1ccccc1,38.5
18,CC(C)c1cccc(C(C)C)c1OC(=O)NC(=O)c1c(F)cccc1F,17.4
19,CCOC(=O)C1CCC(CNCc2ccccc2C)CC1.Cl (centres undefined),44.3
20,CC(=O)N(CCC(c1ccco1)C(C)C)Cc1ccc(Cl)cc1 (centres undefined),16.4
21,Cc1ccc2c(COC(=O)CNS(=O)(=O)c3ccccc3)cc(=O)oc2c1,21.6
22,O=C(COC(=O)c1ccc(F)cc1)Nc1ccc2c(c1)OCO2,4.5
23,CCOC(=O)N1CCN(C(=O)CCc2ccc(S(=O)(=O)NCC(C)C)cc2)CC1,59.6
24,O=C(Nc1ccc2ccccc2c1)C(=O)C1C(=O)Nc2ccccc21 (centres undefined),3.7

row,Structure (SMILES),solubility kinetic [µg/mL]
1,O=C(c1ccc2c(c1)OCO2)C1CCCN(Cc2ccccn2)C1 (centres undefined),32.8
2,O=C(CN1CCC(NC(=O)C2CC2)CC1)Nc1ccccc1[N+](=O)[O-],46.6
3,Nc1ccc(-c2nc3ccc(N)cc3s2)cc1,17.7
4,CCOC(=O)c1sc(NC(=O)Cc2ccccc2OC)nc1C,14.7
5,COc1cc2c(cc1OC)CN(C(=O)c1ccc([N+](=O)[O-])o1)CC2,> 49.8
6,Cc1cc(NC(=O)CSc2nc3ccccc3cc2C#N)no1,2.9
7,Cc1nc(/C(N)=N/OC(=O)c2ccccc2Cl)c(C(F)(F)F)o1,35.8
8,Nc1cccc(Oc2cnccn2)c1,> 28.1
9,Cc1cc(C)n2nc(SCC(=O)Nc3ccc(F)cc3[N+](=O)[O-])nc2n1,> 56.5
10,CC(=O)N1CCC(C(=O)NCCOc2ccc(C)cc2)CC1,> 45.7
11,O=C(CN1C(=O)c2cccc([N+](=O)[O-])c2C1=O)NCc1ccccc1,> 50.9
12,O=C1C2C3C=CC(CC3)C2C(=O)N1c1ccc(F)cc1 (centres undefined),17.9
13,CN(c1ccccc1)c1ncccn1,14.2
14,CCOC(=O)C1CCCN(CC(=O)Nc2cccc(C(C)=O)c2)C1 (centres undefined),46
15,Cc1ccc(CNC(=S)NC2CCCCC2)cc1,32.3
16,CCOc1nc2ccccc2cc1C=O,6.6
17,Cn1c(C2CCCCC2)nc2ccccc21,> 32.1
18,N#Cc1ccccc1COC(=O)c1cccc(S(=O)(=O)N2CCCC2)c1,12
19,CN(C)CCNC(=O)c1sc2cccc(F)c2c1Cl,40.1
20,O=c1[nH]c(Cc2cccc(C(F)(F)F)c2)nc2ccccc12,< 0.3
21,O=C(NC(=O)c1ccc(Cl)cc1)Nc1ccc(-c2cnco2)cc1,2.7
22,O=C1NCCN/C1=C\C(=O)c1ccc(F)cc1,32.5
23,CN1CCN(CC(O)COc2ccc(C(=O)O)cc2)CC1 (centres undefined),35.5
24,O=C(Nc1sc2c(c1C(=O)O)CCCC2)c1cccc(Cl)c1,45.5

row,Structure (SMILES),solubility kinetic [µg/mL]
1,Cc1ccc(C(C)C)c(OCC(=O)OCC(=O)NC2CC2)c1,> 45.8
2,CC(C)c1ccc(NC(=O)C2CSC3(C)CCC(=O)N23)cc1 (centres undefined),24.9
3,OC1CCNC(=S)N1c1ccccc1 (centres undefined),30.7
4,Nc1cc(Nc2ccccc2)c2nonc2c1[N+](=O)[O-],0.5
5,Cc1cccc(-n2c(/C=C/c3ccccn3)nc3ccccc3c2=O)c1,0.5
6,CC1CCCCC1NC(=O)COC(=O)COc1ccccc1F (centres undefined),35.3
7,COC(=O)C(NC(C)=O)(Nc1cc(C)ccn1)C(F)(F)F (centres undefined),40.7
8,CC1C(=O)N2CCCc3cc(NC(=O)C(=O)NCc4ccccn4)cc1c32 (centres undefined),> 54.7
9,C=CCn1c(O)c(C(C)=NC(C)c2ccccc2)c(=O)[nH]c1=O (centres undefined),> 47
10,CCN(CC)CCCNc1nc(N)c([N+](=O)[O-])c(NCCO)n1,> 49.1
11,O=C(CCNC(=O)c1ccco1)Nc1nc(-c2ccccc2)cs1,8.5
12,Cc1cc(Nc2ccccc2Cl)nc(-c2ccccc2O)n1,1.3
13,COc1ccccc1C1CCN(Cc2ccc(C)cc2)CC1,29.8
14,COc1ccccc1NC(=O)CN1CCCCCC1,24.3
15,CCOc1cc2c(cc1/C=C1/NC(=O)N(CC(=O)OC)C1=O)OCO2,2.9
16,CN1C(=O)/C(=C/c2cc3c(cc2Br)OCO3)NC1=S,< 0.4
17,CC(N=C1NC(C)(C)Cc2ccccc21)C(=O)O (centres undefined),33.2
18,COc1ccc([N+](=O)[O-])cc1NC(=O)c1ccccc1SC,0.4
19,CN(CC(=O)NCc1cccnc1)S(=O)(=O)c1ccc(F)cc1,> 50.6
20,Cc1ccc(OCCn2c(C)nc3ccccc32)cc1,9.6
21,COC1CC(C)NC(=S)N1 (centres undefined),> 24
22,CC1CC(=O)N(c2ccc(Br)cc2)C(=O)C1,> 42.3
23,O=C(CCNC(=O)c1ccc(Cl)cc1)NCc1ccco1,> 46

# — PubChem BioAssay AID1996
